Active and inactive are the calls of the source. No cut-off for these calls is given here.
Legend:
[1] = target: T1, B-cell lymphoma 3 protein (Homo sapiens) (UniProt P20749); experiment: Inhibition of Bcl-3 in human MDA-MB-231 cells assessed as reduction in NF-kappaB signalling at 1 uM incubated for 24 hrs by NF-kappaB promoter dependent luciferase reporter gene assay; assay type: cell-based
T1 sequence (whole entry): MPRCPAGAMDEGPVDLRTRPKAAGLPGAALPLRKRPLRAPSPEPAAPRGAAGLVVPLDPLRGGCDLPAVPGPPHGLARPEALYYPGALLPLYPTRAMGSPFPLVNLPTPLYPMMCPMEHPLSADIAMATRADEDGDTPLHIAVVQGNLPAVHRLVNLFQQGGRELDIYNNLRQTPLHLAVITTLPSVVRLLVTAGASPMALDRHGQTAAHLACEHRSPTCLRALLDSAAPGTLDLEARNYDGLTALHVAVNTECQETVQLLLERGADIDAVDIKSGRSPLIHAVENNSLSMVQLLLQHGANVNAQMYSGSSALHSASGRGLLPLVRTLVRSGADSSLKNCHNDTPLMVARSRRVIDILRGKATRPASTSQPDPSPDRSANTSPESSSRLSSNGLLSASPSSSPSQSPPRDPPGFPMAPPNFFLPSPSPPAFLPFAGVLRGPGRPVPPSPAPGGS

[2] = tested on: HEK293; experiment: Toxicity against HEK293 cells assessed as reduction in cell viability at 10 uM incubated for 24 hrs by cell titre blue viability assay relative to control; assay type: cell-based; conditions: human, hek293, 24 h
[3] = tested on: MDA-MB-231; experiment: Toxicity against human MDA-MB-231 cells assessed as reduction in cell viability at 10 uM incubated for 24 hrs by cell titre blue viability assay relative to control; assay type: cell-based; conditions: mda-mb-231, 24 h
[4] = Solubility in water assessed per 100 ml; assay type: physicochemical; conditions: buffer
[5] = Solubility in methanol assessed per 100 ml; assay type: physicochemical
[6] = Solubility in ethanol assessed per 100 ml; assay type: physicochemical
[7] = Solubility in DMSO assessed per 100 ml; assay type: physicochemical
[8] = Solubility in ethyl acetate assessed per 100 ml; assay type: physicochemical
[9] = Solubility in dichloromethane assessed per 100 ml; assay type: physicochemical
[10] = Solubility in diethyl ether assessed per 100 ml; assay type: physicochemical
[11] = tested on: MDA-MB-231; experiment: Inhibition of cell migration of human MDA-MB-231 cells overexpressing Bcl-3 assessed as cell motility at 10 nM incubated for 24 hrs by Boyden chamber assay relative to control; assay type: functional; parameters: scale not given: the % may be the effect or the level left
[12] = tested on: MDA-MB-231; experiment: Inhibition of cell migration of human MDA-MB-231 cells overexpressing Bcl-3 assessed as reduction in cell motility incubated for 24 hrs by Boyden chamber assay; assay type: functional, cell-based; conditions: MDA-MB-231, 24 h

Compound | Activity [2] [%] | Activity [3] [%] | also measured
O=C(Nc1ccc(I)cc1C(=O)NCCN1CCOCC1)c1ccccc1F |  |  | inhibition [1]: Active
O=C(Nc1ccccc1C(=O)NCCN1CCOCC1)c1ccc(F)cc1F | > 90 | > 90 | 
O=C(Nc1ccccc1C(=O)NCCN1CCOCC1)c1ccccc1F [listing 1 of 2 here] |  |  | inhibition [1]: Active
O=C(Nc1cccc(Cl)c1C(=O)NCCN1CCOCC1)c1ccccc1F | > 70 | > 70 | 
Cl.O=C(Nc1ccccc1C(=O)NCCN1CCOCC1)c1ccccc1F |  |  | solubility [4]: 0.95 g; solubility [5]: 0.59 g; solubility [6]: 0.19 g; solubility [7]: < 0.01 g; solubility [8]: 0.02 g; solubility [9]: 0.9 g; solubility [10]: 0.01 g
O=C(Nc1ccccc1C(=O)NCCN1CCOCC1)c1ccc(F)cc1 | > 70 | > 70 | 
O=C(Nc1ccccc1C(=O)NCCN1CCOCC1)c1cc(F)cc(F)c1 | > 90 | > 90 | 
COc1cccc(C(=O)Nc2ccccc2C(=O)NCCN2CCOCC2)c1 | > 70 | > 70 | 
O=C(Nc1ccccc1C(=O)NCCc1ccccn1)c1ccccc1F | > 70 | > 70 | 
O=C(Nc1ccccc1C(=O)NCCCN1CCOCC1)c1ccccc1F | > 70 | > 70 | inhibition [1]: Active
Cc1ccccc1C(=O)Nc1ccccc1C(=O)NCCN1CCOCC1 | > 70 | > 70 | 
O=C(NCCN1CCOCC1)c1ccccc1NC(=O)c1c(F)cccc1F | > 90 | > 90 | 
COc1ccc(C(=O)Nc2ccccc2C(=O)NCCN2CCOCC2)cc1OC | > 90 | > 90 | 
Cc1cccc(C(=O)NCCN2CCOCC2)c1NC(=O)c1ccccc1F | > 70 | > 70 | 
COc1cccc(C(=O)NCCN2CCOCC2)c1NC(=O)c1ccccc1F | > 70 | > 70 | 
COc1cc(OC)cc(C(=O)Nc2ccccc2C(=O)NCCN2CCOCC2)c1 | > 90 | > 90 | 
O=C(Nc1ccccc1C(=O)NCCN1CCOCC1)c1ccccc1F [listing 2 of 2 here] | > 70 | > 70 | solubility [4]: < 0.01 g; solubility [5]: 0.2 g; solubility [6]: 0.09 g; solubility [7]: 3.71 g; solubility [8]: 0.34 g; solubility [9]: 2.91 g; solubility [10]: 0.09 g
O=C(NCCN1CCOCC1)c1ccccc1NC(=O)c1ccccc1[N+](=O)[O-] | > 70 | > 70 | 
COc1cc(C(=O)Nc2ccccc2C(=O)NCCN2CCOCC2)cc(OC)c1OC | > 90 | > 90 | 
O=C(Nc1ccccc1C(=O)NCCN1CCCCC1)c1ccccc1F | > 70 | > 70 | inhibition [1]: Active
NCCNC(=O)c1ccccc1NC(=O)c1ccccc1F | > 70 | > 70 | 
COc1ccc(C(=O)Nc2ccccc2C(=O)NCCN2CCOCC2)cc1 | > 70 | > 70 | inhibition [1]: Active; Activity [11]: <50%
O=C(Nc1ccccc1C(=O)NCN1CCCC1)c1ccccc1F | > 70 | > 70 | IC50 [12]: 3.65 µM
O=C(Nc1ccccc1C(=O)NCCN1CCOCC1)c1ccc([N+](=O)[O-])cc1 | > 70 | > 70 | 

From ChEMBL document CHEMBL4421724, “2-benzoylaminobenzamide derivatives as bcl-3 inhibitors” (2016)
